This is an account of results in patent US20170000784A1, “Autophagy Inhibitors” (priority 2013, published 2017).

Assay [1] has as its system lysosomes (LAMP1, LysoTracker Red) in U2OS cells. Nature of the assay: Lysosome analysis by fluorescent microscopy (LAMP1 / LysoTracker Red). To be noted: 3 μM for 3 hours. Format: cell-based. The method, then: To determine deacidification of the lysosome, cells were incubated with LysoTracker Red, a dye that localizes to the lysosome based on the […] of the compartment. If the lysosome is no longer acidic, there is a loss in the amount of LysoTracker Red staining. Lysosomal inhibition was further determined by immunofluorescence of lysosome-associated membrane protein-1 (LAMP1). If the lysosome is inhibited, lysosomal turnover should decrease and an increase in the amount of LAMP1 staining would be apparent. U2OS cells were treated with Example 7 or Example 26 at 3 μM for 3 hours, supplementing LysoTracker Red for the final hour.
Using image analysis software, the mean intensities of both the LAMP1 and LysoTracker Red staining were measured and represent altered intensity level between treatments on intensity plots. Individual points were measured using a line scan on the image analysis software, which measures the intensity across the path of a line at any given point. Not only does the presence of LAMP1 positive membranes increases, but the intensity in LAMP1 staining also increases with Example 7 and Example 26 treatment. The inverse relationship in intensity holds true for LysoTracker Red staining.
U2OS cells were seeded at 5×10^4 cells per well in 5A McCoy's with 10% FBS on number 1.5 coverglass discs in 24-well tissue culture dishes. After 24 hours, cells were treated with 3 μM CQ, QN, VATG-027, or VATG-032 for three hours. An hour prior to fixation, media was supplemented with LysoTracker Red added at 100 nM (Invitrogen, L7528). Cells were washed with 1×PBS, fixed with 3.7% formaldehyde, permeabilized with 0.2% Triton-X 100, and blocked with 3% bovine serum albumin (BSA) in PBS. LAMP1 antibody (Santa Cruz, sc-18821) was added at 1:1000 for 16 hours at 4° C. followed by Alexa-Fluor-488-conjugated anti-mouse IgG (Invitrogen, A11008) 1:5000 for 1 hour at room temperature. Nuclei were stained with Hoechst 33342 (2 μg/mL). Coverglass discs were inverted onto a microscope slide using mounting gel. The microscope slides were imaged using a 60× oil-immersion objective on a Nikon Eclipse Ti fluorescent microscope. Intensity of the red and green channels were visualized using the intensity plot on the Nikon NIS Elements software (FIG. 13B). […] The RGB threshold of only the color […] indicating both LAMP1 and LysoTracker Red positivity was performed and data for analysis. The Mander's co-localization coefficient was produced from the Nikon NIS Elements software.
Next, the inventors sought to confirm the inhibition of lysosomal turnover induced by the compounds of the present invention, for example, those of Formula III, Formula III(a), Formula V, Formula V(a), Formula A, Formula A^1, Formula A^2, Formula A^3, or a pharmaceutically acceptable salt thereof, by evaluating the abundance of endogenous lysosomal protein, LAMP1. In addition, lysosome acidity was assessed by co-staining cells with LysoTracker Red, a dye that localizes to the lysosome based on the low pH. Cells were treated with 3 μM CQ, QN, Example 7, or Example 27 for 3 hours, with LysoTracker Red supplemented for the final hour. Following, cells were fixed and stained with endogenous LAMP1 antibodies and both LAMP1 and LysoTracker Red imaged. […] To quantify this phenotype, the co-localization of LAMP1 and LysoTracker Red was measured using image analysis software. […] In addition, Mander's colocalization coefficient (MCC) values were determined for each treatment (FIG. 13C). Not only does the presence of LAMP1-positive membranes increase, but the intensity of LAMP1 staining also increases with QN, Example 7, and Example 27 treatment (FIG. 13C).

Assay [2] has as its system U2OS cells stably expressing tfLC3. Format: cell-based. To be noted: for Effective Concentration (EC): concentration with statistically significant increase in puncta number over vehicle control, three hours. The method, then: U2OS cells stably expressing tfLC3 were seeded at 50,000 cells per well in 5A McCoy's with 10% FBS on number 1.5 coverglass in 24-well tissue culture dishes. After 24 hours, cells were treated with known autophagy controls rapamycin [100 nM] (Millipore, 553210-10 mg), bafilomycin A1 [100 nM] (AG Scientific, B-1183), AZD-8055 [100 nM](Selleck Chemicals, S1555), and CQ [50 μM] as well as autophagy inhibitors (CQ, QN, Example 7, and Example 27) at doses of 0.1 μM, 0.25 μM, 0.5 μM, 1 μM, 5 μM, 15 μM, 25 μM, and 50 μM for three hours. Cells were washed with 1×PBS, fixed with 3.7% formaldehyde, and nuclei were stained with Hoechst 33342 (2 μg/mL). Coverglass was inverted onto microscope slides using mounting gel. Cells were imaged using a 60× oil-immersion objective on a Nikon Eclipse Ti fluorescent microscope and 10 images at each dose were taken for quantification. Image processing and quantification were completed with the Nikon NIS Elements software. To quantify, images were deconvolved using a 2D blind deconvolution function with one iteration and settings of normal cell thickness and normal noise level. Regions of interest (ROI) were drawn around the edges of each cell. Intensity thresholds were set to include all pixels equal to or greater than the intensity above the mean background fluorescence using the separation feature and restrictions set for puncta size (FIG. 9). Objects within the threshold for each ROI were quantified using an automated object count function and exported for analysis. Although other parameters were also collected, the mean intensity of the objects was averaged between the 10 images of each dose, or approximately 50 cells (FIGS. 9B and 9C). Representative images were chosen for each dose and the lookup table (LUT) brightness' were set based on the mean intensity of the DMSO control (FIGS. 8A and 10A). The mean intensity of each image was divided by the mean intensity of the DMSO control to control for brightness and the LUTs were adjusted by the percent difference to avoid background and for consistent visualization. All other settings (gain, exposure time, and lamp strength) were kept the same across all conditions. […] Mean intensity was further chosen for quantification as it accurately represents both the increase in puncta number and area when the accumulation of autophagosomes partially fuse (FIG. 9C, 9D). Quantification of the red channel (RFP-LC3 puncta) was performed to determine the total autophagic vesicle population (both autophagosomes and autolysosomes).
Autophagy inhibition can be measured by fluorescent microscopy using cells expressing a tandem fluorescent (RFP-GFP) labeled LC3 sensor (tfLC3). Upon autophagosome nucleation, LC3 is localized to the autophagic membrane and the overlapping GFP and RFP fluorescence appears as yellow puncta. After the autophagosome matures, it fuses with the lysosome, forming an autolysosome. The GFP in this LC3 sensor is pH labile and becomes quenched by the acidic environment of the autolysosome. However, the RFP remains stable; therefore, autolysosomes are indicated by red puncta. Accordingly, when autophagy is inhibited at the final stage (completion), the abundance of yellow puncta is expected to increase proportionally to the level of autophagy inhibition.
Cells were then fixed and imaged by fluorescent microscopy.

Assay [3] has as its system endogenous LC3 in U2OS cells. In words: Western blot of endogenous LC3 (LC3-II accumulation) in U2OS. It counts as cell-based. Conditions: three hours, basally and in response to rapamycin-induced autophagy induction, FIG. 7. On the procedure: For Western blotting, U2OS cells were seeded in 10 cm plates in 5A McCoy's with 10% FBS at 1×10^6 cells per plate. […] After treatment, cells were lysed [10 mM KPO4, 1 mM EDTA, 10 mM MgCl2, 5 mM EGTA, 50 mM bis-glycerophosphate, 0.5% NP40, 0.1% Brij35, 0.1% sodium deoxycholate, 1 mM NaVO4, 5 mM NaF, 2 mM DTT, and complete protease inhibitors (Sigma, P8340-5 mL)] and 50 μg of protein was resolved by SDS-PAGE. […] Proteins were detected with enhanced chemiluminescence or using the Odyssey machine and quantified (FIGS. 12, 15, 16, 7 and 11).
A general note: Immunoblotting shows a protein as a band on a membrane.

The next assay relates to A375 cells. It counts as cell-based, human. Conditions: A375 soft agar; single compound at IC10. From the text:
After three weeks of treatment, cells were fixed and stained in 1% paraformaldehyde in 1×PBS containing 0.005% crystal violet overnight. Cells were destained with multiple washes of 1×PBS to remove background staining. Plates were scanned and images quantified using Nikon NIS Elements software. To quantify, each image was sharpened and an ROI of equal size drawn around each well. Intensity thresholds were set to include all pixels equal to or greater than the intensity of the mean background fluorescence. Objects within the threshold of each ROI were quantified using an automated object count function and exported for analysis. Object number was quantified to denote total colony formation. […] Additivity was established when the expected viability determined by the Bliss independence model was equal to the actual viability. This model was chosen since the effects of both compounds are mutually non-exclusive and follow first order Michaelis-Menten kinetics.
To determine if the effects of each combination were more than, less than, or equal to additive, predictions for additivity were made using the Bliss Independence (Table 7), as disclosed in Yan H, Zhang B, Li S, Zhao Q. A formal model for analyzing drug combination effects and its application in TNF-alpha-induced NFkappaB pathway. BMC Syst. […] Drug combination studies and their synergy quantification using the Chou-Talalay method.

Read-outs that look alike come from different tables or passages of the source.

`CCN1CCC(Nc2c3c(nc4cc(Cl)ccc24)CCCC3)CC1` [Example 26, 6-Chloro-N-(1-ethylpiperidin-4-yl)-1,2,3,4-tetrahydroacridin-9-amine]: the LAMP1 staining result in assay [1] is “increases”. For the same molecule, the “LysoTracker Red staining” value in assay [1] (LysoTracker Red for the final hour) is reported as “less intense”.
On to `COc1cc(NC(C)CCCN)c2ncccc2c1` (stereo not drawn) [Primaquine, primaquine], for which the “Effective Concentration (EC)” value in assay [2] was determined as 50 µM. Moreover, the “Potency (EC/ECCQ)” value in assay [2] (relative potency score versus chloroquine, greater than one = more potent than CQ) is reported as 0.25. In assay [3], the “accumulation of LC3-II” value is reported as “induce the accumulation of LC3-II”.
Regarding piperaquine, in assay [2], the “Potency (EC/ECCQ)” value is reported as 0.25 and the “Effective Concentration (EC)” value stood at 50 µM. Besides, in assay [3], the “accumulation of LC3-II” value is given as “induce the accumulation of LC3-II”.
As to `COc1ccc(-c2ccc3c(N4CCOC[C@@H]4C)nc(N4CCOC[C@@H]4C)nc3n2)cc1CO` [AZD-8055, reference compound], in the assay on A375 cells, the “Relative Growth Inhibition Compound B” value worked out at 0.12.
In the case of `CCN(CC)Cc1cc(Nc2ccnc3cc(Cl)ccc23)ccc1O` [Amodiaquine, amodiaquine], in assay [2], the “Potency (EC/ECCQ)” value is on record as 1 and the “Effective Concentration (EC)” value stood at 15 µM. In addition, in assay [3], the “accumulation of LC3-II” value is recorded as “induce the accumulation of LC3-II”.
